According to patent US20240124483A1, “Methods for the Treatment of Fibrotic Disease” (SHY Therapeutics, LLC, priority 2021, published 2024):
Read-outs that look alike come from different tables or passages of the source.

What was measured:
Rho-A = Rho-A (Homo sapiens (Human), UniProt P61586); assay: Ras GTP Binding Domain Inhibition Assay, Rho-A; details: without SOS, read-out: Rho-A: % inh.
Procedure, shortened: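 Steps: coat His-tagged protein (10-30 μg/mL) on nickel wells overnight at 4° C; add test compound, 20 μM final or serial dilution, 1% DMSO, 3 h RT; optional Sos final hour; add 100 nM Cy3-GTP or Cy5-GTP, 45 min; wash and read fluorescence.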

KRas G12C mutant = KRas G12C mutant (Homo sapiens (Human), UniProt P01116, G12C); assay: Ras GTP Binding Domain Inhibition Assay, KRas G12C mutant
Chain of KRas G12C mutant (P01116 other isoform, or with tags, fused parts or gaps G12C): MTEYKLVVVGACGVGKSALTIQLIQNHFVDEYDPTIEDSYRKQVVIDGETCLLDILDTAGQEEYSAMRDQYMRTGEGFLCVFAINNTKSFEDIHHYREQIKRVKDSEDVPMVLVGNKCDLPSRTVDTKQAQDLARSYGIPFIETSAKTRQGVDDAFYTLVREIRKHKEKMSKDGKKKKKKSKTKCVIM
Procedure, shortened: (§1)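 His-tagged GTPase immobilized on nickel-coated plates (10-30 μg/mL, overnight, 4° C), then exposed to compound (20 μM or serial dilution for IC50, 1% DMSO) for 3 h at room temperature, with or without His-tagged Sos (residues 556-1049) in the final hour. Bound Cy3-GTP or Cy5-GTP (100 nM, 45 min) was read by fluorescence after washing.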

KRas G12D mutant = KRas G12D mutant (Homo sapiens (Human), UniProt P01116, G12D); assay: Ras GTP Binding Domain Inhibition Assay, KRas G12D mutant; details: for inhibition at 20 µM: Table 7; for KRas G12D mutant + SOS: % inh. / KRas G12D mutant: % inh.: 20 uM, Table 8
Chain of KRas G12D mutant (P01116 other isoform, or with tags, fused parts or gaps G12D): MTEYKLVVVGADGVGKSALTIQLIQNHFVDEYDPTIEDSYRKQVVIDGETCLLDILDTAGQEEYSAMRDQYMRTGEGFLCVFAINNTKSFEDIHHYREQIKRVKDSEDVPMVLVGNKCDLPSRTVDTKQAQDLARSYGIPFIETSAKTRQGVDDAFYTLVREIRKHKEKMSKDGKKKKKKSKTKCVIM
Procedure, shortened: as §1

MAPK p38 = MAPK p38 Activation Assay in Panc-1 (western blot); format: cell-based, Human; parameters: key: Y = yes; N = No; details: at 10 μM
Procedure, shortened: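 Cells serum-starved overnight in 0.5% FBS, then compound 3 h at 37° C (10 μM or serial dilutions for IC50; 0.3% DMSO). TGF-b1 10 ng/ml stimulation followed: 1 h for Panc-1, 20 min for C2C12. Phospho-p38 (Thr180/Tyr182) measured by western blot of lysates.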

[1] = + SOS, read-out: KRas G12C mutant + SOS: % inh.
[2] = without SOS, read-out: KRas G12C mutant: % inh.
[3] = + SOS, read-out: KRas G12D mutant + SOS: % inh.
[4] = without SOS, read-out: KRas G12D mutant: % inh.

Chain of Rho-A (P61586 whole entry, species assumed, the tested form may be a part): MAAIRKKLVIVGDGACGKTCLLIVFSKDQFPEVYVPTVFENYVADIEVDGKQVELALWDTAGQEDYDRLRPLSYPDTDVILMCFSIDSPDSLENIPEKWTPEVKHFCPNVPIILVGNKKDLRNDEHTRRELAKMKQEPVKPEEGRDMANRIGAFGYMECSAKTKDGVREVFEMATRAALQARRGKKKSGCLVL

| inhibition at 20 µM (Rho-A) [%] | inhibition at 20 µM (KRas G12C mutant; [1]) [%] | inhibition at 20 µM (KRas G12C mutant; [2]) [%] | inhibition at 20 µM (KRas G12D mutant; [3]) [%] | KRas G12D mutant + SOS: % inh. (KRas G12D mutant; + SOS) | inhibition at 20 µM (KRas G12D mutant; [4]) [%] | KRas G12D mutant: % inh. (KRas G12D mutant; without SOS) | Compound | Activation of MAPK p38 in PANC-1 (MAPK p38) |
| --- | --- | --- | --- | --- | --- | --- | --- | --- |
| 26 to 45 | 76 to 100 | 46 to 75 | 76 to 100 | D (D = 76-100% inhibition) | 46 to 75 | C (C = 46-75% inhibition) | COc1cccc(-c2sc3nc(-c4nccn4C)nc(N[C@H]4C[C@H](OC)C4)c3c2-c2ccccc2)c1F [Compound 40, 6-(2-Fluoro-3-methoxyphenyl)-N-((1r,3r)-3-methoxycyclobutyl)-2-(1-methyl-1H-imidazol-2-yl)-5-phenylthieno[2,3-d]pyrimidin-4-amine] | Y |
| 46 to 75 | 76 to 100 | 46 to 75 | 76 to 100 | D (D = 76-100% inhibition) | 26 to 45 | B (B = 26-45% inhibition) | COc1cccc(-c2sc3nc(-c4nccn4C)nc(N[C@H]4C[C@H](OC)C4)c3c2C)c1F [Compound 42, 6-(2-Fluoro-3-methoxyphenyl)-N-((1r,3r)-3-methoxycyclobutyl)-5-methyl-2-(1-methyl-1H-imidazol-2-yl)thieno[2,3-d]pyrimidin-4-amine] | Y |
| 46 to 75 | 76 to 100 | 26 to 45 | 46 to 75 | C (C = 46-75% inhibition) | 46 to 75 | C (C = 46-75% inhibition) | COc1nccc(-c2sc3nc(-c4nccn4C)nc(N[C@H]4C[C@H](OC)C4)c3c2-c2ccccc2)c1F [Compound 45, 6-(3-Fluoro-2-methoxypyridin-4-yl)-N-((1r,3r)-3-methoxycyclobutyl)-2-(1-methyl-1H-imidazol-2-yl)-5-phenylthieno[2,3-d]pyrimidin-4-amine] | N |
| 46 to 75 | 76 to 100 | 26 to 45 | 46 to 75 | C (C = 46-75% inhibition) | 46 to 75 | C (C = 46-75% inhibition) | COc1cc(-c2sc3nc(-c4nccn4C)nc(N[C@H]4C[C@H](OC)C4)c3c2-c2ccccc2)ccn1 [Compound 46, N-((1r,3r)-3-Methoxycyclobutyl)-6-(2-methoxypyridin-4-yl)-2-(1-methyl-1H-imidazol-2-yl)-5-phenylthieno[2,3-d]pyrimidin-4-amine] | N |
